Experimental data: US20260306641A1, “HELICASE DEGRADERS” (priority 2023, published 2026)

Legend:
[1] = test system: T1, human CMG helicase (hCMG); assay: hCMG helicase fork-unwinding (strand displacement) assay; type: biochemical; settings: for inhibition of hCMG helicase activity, SAR set: 500 μM compound
T1 construct: made in house; host or cells: High Five insect cells, baculovirus (11 viruses co-infected)
Procedure: The human CMG helicase was purified following the established and validated protocol of Hurwitz and colleagues(19,20), with minor modifications. A detailed description of the approach is shown here, to allow for comparisons to the methods described by the Hurwitz group.
High Five insect cells (2-3 million cells/ml, 1.5 L), were in cultured in a shaking incubator at 27° C. in suspension with ESF921 serum free medium (Expression Systems, CA; cat. #96-001-01), then co-infected for 60 hrs with 11 baculoviruses expressing human 6His2Flag-Cdc45, the human MCM hexamer (Mcm2, Mcm3, Mcm4, Mem5, Mcm6, Mcm7), and human GINS (GST-Sld5, Psf3, Psf2, and Psf1). Each virus was infected at an MOI of ~10 from individual virus stocks. Infected cells were harvested by centrifugation at 650×g for 5 min at 4° C., washed with cold PBS, frozen on dry ice, and stored at −80° C. until use. The cell pellet (~20 mL) was thawed on ice, resuspended in 45 ml Hypotonic Buffer [20 mM Hepes-NaOH (pH 7.5), 5 mM KCl, 1.5 mM MgCl2] with protease inhibitors (1 mM [COMPOUND LEFT OUT], 1 mM Benzamidine, 0.15 μM Aprotinin, 4 μM Leupeptin, and 1 μM Antipain), and kept on ice for 10 min before lysing by Dounce homogenization (tight fitting, 60 strokes). The cell extract was adjusted to 0.42 M potassium acetate and centrifuged at 43,000×g for 1 hr at 4° C. The cleared lysate was mixed with 0.75 ml glutathione beads (cat. #17-0756-05; GE Healthcare) pre-equilibrated with FEQ buffer [20 mM Hepes-NaOH (pH 7.5), 0.42 M potassium acetate, 5 mM KCl, 1.5 mM MgCl2] and incubated by rotation at 4° C. overnight. Following centrifugation at 290×g at 4° C., the bound glutathione beads were washed four times (15 min each wash) with 40 ml of FW buffer [20 mM Hepes-NaOH (pH 7.5), 0.42 M potassium acetate, 1 mM DTT, 1 mM EDTA, 0.01% NP40, 10% glycerol (vol/vol) with protease inhibitors as above] containing protease inhibitors (as above). Bound proteins were eluted at 4° C. three times (1 hr each elution) with 3.5 ml Q buffer [20 mM Hepes-NaOH (pH 7.5), 1 mM DTT, 1 mM EDTA, 0.01% NP40, 10% glycerol (vol/vol), and protease inhibitors as above] containing 0.15 M potassium acetate and 20 mM reduced glutathione. The eluted fractions were combined and applied to a HiTrap Q-Sepharose FF column (HiTrap Q FF 1 mL, cat. #17505301, Cytiva), pre-equilibrated 3× with 5 ml of Q buffer containing 0.15 M, 0.75 M, 0.15M potassium acetate, in sequence. The Q-Sepharose FF column was washed with 10 ml of FW buffer containing protease inhibitors (as above). The proteins were eluted with 10 ml of Q buffer containing 0.75 M potassium acetate. The eluted fraction was mixed with 0.15 ml of anti-Flag M2 affinity gel/beads and incubated while rotating at 4° C. overnight. After centrifugation at 290×g for 5 min at 4° C., the beads were washed three times with 10 ml PreScission buffer [50 mM Tris-HCl (pH 7.5), 0.15 M NaCl, 1 mM DTT, 1 mM EDTA] for 15 min at 4° C., and eluted at 4° C. three times (1 hr each elution) with 0.2 ml PreScission enzyme buffer containing 0.2 mg/ml 3×-Flag peptides. The combined eluates were incubated with 20 Units of PreScission Protease (GE Healthcare) and 0.1 mL glutathione beads for 4 hr at 4° C. The supernatant was layered onto a 15-40% glycerol gradient [25 mM Tris-HCl (pH 7.5), 50 mM NaCl, 1 mM DTT, 1 mM EDTA, 0.01% NP40, protease inhibitors as above] in a 5 mL ultra-centrifugation tube and centrifuged at 260,000×g for 14 hr at 4° C. Glycerol fractions (0.15 mL each fraction) were collected from bottom of tube and stored at −80° C. until use. Typically, fractions 6-9 contained complete hCMG (~750-800 kDa) and co-migrated with thyroglobulin.
Helicase fork-unwinding assays were performed at 37° C. for 1 hr in 20 μL reaction volumes using 2-4 μl of hCMG (~15-30 fmol), in a buffer consisting of 25 mM Hepes-NaOH (pH 7.5), 5 mM NaCl, 0.5 mM ATP, 10 mM magnesium acetate, 1 mM DTT, 0.1 mg/ml bovine serum albumin (BSA), and ~10 fmol of radiolabeled DNA forks (20). […]

[2] = test system: T1, human CMG helicase (hCMG); assay: hCMG ATPase activity, FP ADP^2 Transcreener assay; type: biochemical; settings: role: product, 15 fmol hCMG, 500 μM ATP
Procedure: The fluorescent-polarization (FP) ADP-sensing assays were performed using the Transcreener® ADP^2 FP assay kit (cat #3010-1K, Bellbrook Labs). For hCMG inhibitor screening, assays were performed at 37° C. for 1 hr in 10 μl reactions in a 384-well plate (cat. #4514, Corning) using 2 μL of hCMG (~15 fmol), 25 mM Hepes-NaOH (pH 7.5), 10 mM NaCl, 0.5 mM ATP, 10 mM magnesium acetate, 1 mM DTT, 0.1 mg/ml BSA, and DNA fork substrates. […] Selected inhibitors or samples from a chemical library were added into the reactions when conducting the screening or testing inhibitor effectiveness. The NCI Diversity Set VI chemical library was obtained from the National Cancer Institute (Bethesda, MD).
The window of sensitivity for the ADP-sensing assays is determined by setting up two 10 μL control samples without any added hCMG helicase: a Low-FP mixture (4 nM ADP Alexa Fluor-633 Tracer alone) and a High-FP mixture (4 nM ADP Alexa Fluor-633 Tracer plus patented anti-ADP^2 Antibody). The amount of ADP^2 Antibody used had to be adjusted to account for the use of 500 μM ATP in our hCMG assays, versus 10 μM ATP in enzyme reactions typically assessed with standard kits prepared by BellBrook Labs. […] This was done according to the manufacturer by performing a titration with increasing ADP^2 Antibody, fixed 4 nM ADP Alexa Fluor-633 Tracer, and 500 μM ATP to determine the ~EC80-85 for millipol (mP) changes, which determined the optimal ADP^2 Antibody concentration to use as 0.64 mg/ml (FIG. 9A). Samples are read with a Perkin Elmer Envision II plate reader with optimized Cy5 (far-red) FP-compatible mirror and cubes (cat #2100-8390, Perkin Elmer). The Low-FP sample is the least polarized and gives a low mP reading, while the High-FP sample is the most polarized and gives the highest mP reading. The difference between the Low-FP and High-FP values defines the FP assay window, which is normally in a range of 150-200 mP under ideal conditions for screening purposes. The hCMG helicase hydrolyzes ATP to ADP and decreases the mP reading within this window, with an ideal change (ΔmP) in the FP window of at least 50% to be in a readable range for inhibitor screening (as per manufacturer). Potential hCMG chemical inhibitors reverse this effect and cause the mP readings to increase.
We performed a titration with increasing and decreasing concentrations of ADP and ATP, respectively, to assess the sensitivity of the FP assay in detecting ADP production (FIG. 9B). Consistent with the stated manufacturer predictions, the assay can reliably detect 1-3% changes in ADP production (i.e., 5-15 μM ADP production) in starting concentrations of ATP of 500 μM, with a Z′ efficiency between 0.6-0.8 (determined following manufacturer protocols).
Once the hCMG enzyme reactions are complete, 10 μL of 1× Stop Solution and Detection Buffer (buffer from BellBrook Labs; containing 4 nM ADP Alexa Fluor-633 Tracer plus ADP^2 Antibody) are added to each reaction, and to the High-FP control. The Low-FP control receives 10 μL of 1× Stop Solution and Detection Buffer containing only 4 nM ADP Alexa Fluor-633 Tracer (no Antibody). Samples are incubated at 25° C. for 1 hr, then read in the plate reader. […] Plate readings from these tests of potential positive hits should be similar to that seen with the Low-FP control, or such hits may instead be false-positives.

HaCaT cells = assay: BrdU labeling of DNA replication in synchronized HaCaT cells; type: cell-based, human; settings: treated at 18 hrs, analyzed 3 hrs later; CA1/novobiocin 15 μM, etoposide 5 μM
Procedure: Verification of synchronization and determination of drug effects was performed by measuring the incorporation of bromo-deoxyuridine (BrdU) into replicating foci within nuclei. At times indicated, cells were pulse-labeled with 15 μM BrdU for 30 min, fixed with 4% paraformaldehyde, and analyzed by standard immunofluorescent techniques(40,51) with an anti-BrdU monoclonal antibody (Roche, clone no. BMC9318, RRID:AB_2313622). The average counts of three fields of 100 or more cells were used to determine the percentages of BrdU-labeled nuclei, +/−1 s.d.

[3] = test system: MCM/CMG and replisome proteins in HaCaT cells; assay: Immunoblots of chromatin-bound or total proteins, synchronized HaCaT cells; type: cell-based, human; settings: S-phase cells; etoposide 5 μM

T1 sequence (P49736 whole entry): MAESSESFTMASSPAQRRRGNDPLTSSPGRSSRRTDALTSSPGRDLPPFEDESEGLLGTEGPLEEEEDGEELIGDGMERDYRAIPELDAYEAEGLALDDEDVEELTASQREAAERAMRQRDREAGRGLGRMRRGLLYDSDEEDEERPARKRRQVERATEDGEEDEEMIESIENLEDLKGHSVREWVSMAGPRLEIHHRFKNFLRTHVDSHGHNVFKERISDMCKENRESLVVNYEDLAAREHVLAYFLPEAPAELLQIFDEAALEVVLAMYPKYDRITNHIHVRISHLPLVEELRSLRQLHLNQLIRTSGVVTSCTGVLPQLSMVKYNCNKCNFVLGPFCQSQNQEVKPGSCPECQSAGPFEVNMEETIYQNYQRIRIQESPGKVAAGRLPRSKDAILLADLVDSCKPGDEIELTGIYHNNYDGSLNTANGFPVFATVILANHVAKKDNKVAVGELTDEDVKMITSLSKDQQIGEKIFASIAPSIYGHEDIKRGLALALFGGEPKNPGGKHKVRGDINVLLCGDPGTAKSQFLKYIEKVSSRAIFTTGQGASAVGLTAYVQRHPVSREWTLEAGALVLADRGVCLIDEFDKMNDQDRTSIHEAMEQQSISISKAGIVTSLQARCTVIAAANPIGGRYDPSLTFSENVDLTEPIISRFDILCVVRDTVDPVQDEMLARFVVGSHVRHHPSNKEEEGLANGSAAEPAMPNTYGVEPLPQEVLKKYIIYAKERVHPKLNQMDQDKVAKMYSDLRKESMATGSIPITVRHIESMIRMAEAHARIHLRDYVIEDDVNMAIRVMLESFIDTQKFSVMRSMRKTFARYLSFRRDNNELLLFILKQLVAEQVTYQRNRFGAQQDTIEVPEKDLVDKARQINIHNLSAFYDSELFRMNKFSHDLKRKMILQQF
T1 sequence (P25205 whole entry, further chain): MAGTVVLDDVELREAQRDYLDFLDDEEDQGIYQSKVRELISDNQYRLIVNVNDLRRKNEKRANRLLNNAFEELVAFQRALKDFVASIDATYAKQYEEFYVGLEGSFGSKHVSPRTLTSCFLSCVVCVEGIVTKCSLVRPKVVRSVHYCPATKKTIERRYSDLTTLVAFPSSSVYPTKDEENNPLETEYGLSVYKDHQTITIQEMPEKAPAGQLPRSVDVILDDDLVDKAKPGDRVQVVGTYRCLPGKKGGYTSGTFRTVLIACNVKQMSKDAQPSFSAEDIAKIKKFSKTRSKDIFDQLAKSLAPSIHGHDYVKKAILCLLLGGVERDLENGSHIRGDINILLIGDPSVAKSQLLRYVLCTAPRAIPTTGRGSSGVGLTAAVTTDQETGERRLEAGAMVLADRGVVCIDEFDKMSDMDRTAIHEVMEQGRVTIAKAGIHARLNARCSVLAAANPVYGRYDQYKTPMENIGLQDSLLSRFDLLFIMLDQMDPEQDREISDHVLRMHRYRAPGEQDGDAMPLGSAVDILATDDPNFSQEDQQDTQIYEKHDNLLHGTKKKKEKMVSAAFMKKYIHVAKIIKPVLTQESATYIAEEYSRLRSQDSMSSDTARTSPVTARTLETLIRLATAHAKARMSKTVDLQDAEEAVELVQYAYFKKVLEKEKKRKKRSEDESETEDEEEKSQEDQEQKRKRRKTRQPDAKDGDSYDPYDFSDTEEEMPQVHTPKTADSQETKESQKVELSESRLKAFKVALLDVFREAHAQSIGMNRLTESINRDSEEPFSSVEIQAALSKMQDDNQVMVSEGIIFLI
T1 sequence (P33991 whole entry, further chain): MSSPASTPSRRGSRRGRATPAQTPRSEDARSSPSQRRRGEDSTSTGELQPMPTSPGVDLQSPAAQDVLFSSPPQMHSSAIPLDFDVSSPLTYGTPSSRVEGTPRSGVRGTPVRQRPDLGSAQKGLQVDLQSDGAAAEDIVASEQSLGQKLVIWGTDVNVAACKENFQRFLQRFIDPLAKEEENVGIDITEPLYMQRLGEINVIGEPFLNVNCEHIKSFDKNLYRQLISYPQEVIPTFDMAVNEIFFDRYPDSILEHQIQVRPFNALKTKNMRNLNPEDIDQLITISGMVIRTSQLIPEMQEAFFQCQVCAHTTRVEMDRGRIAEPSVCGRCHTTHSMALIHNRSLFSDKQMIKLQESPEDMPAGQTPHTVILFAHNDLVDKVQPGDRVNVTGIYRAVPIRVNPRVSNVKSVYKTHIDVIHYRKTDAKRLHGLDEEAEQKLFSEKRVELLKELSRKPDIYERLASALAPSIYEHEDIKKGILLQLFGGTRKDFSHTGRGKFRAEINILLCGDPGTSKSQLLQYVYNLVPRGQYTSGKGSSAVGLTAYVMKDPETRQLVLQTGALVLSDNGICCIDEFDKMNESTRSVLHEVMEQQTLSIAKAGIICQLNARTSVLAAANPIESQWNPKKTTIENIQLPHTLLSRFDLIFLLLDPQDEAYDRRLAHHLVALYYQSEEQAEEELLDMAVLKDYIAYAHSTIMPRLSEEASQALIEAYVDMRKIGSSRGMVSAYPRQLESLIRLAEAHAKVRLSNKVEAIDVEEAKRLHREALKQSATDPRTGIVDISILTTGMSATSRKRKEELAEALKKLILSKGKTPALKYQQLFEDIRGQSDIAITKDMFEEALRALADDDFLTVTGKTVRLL
T1 sequence (P33992 whole entry, further chain): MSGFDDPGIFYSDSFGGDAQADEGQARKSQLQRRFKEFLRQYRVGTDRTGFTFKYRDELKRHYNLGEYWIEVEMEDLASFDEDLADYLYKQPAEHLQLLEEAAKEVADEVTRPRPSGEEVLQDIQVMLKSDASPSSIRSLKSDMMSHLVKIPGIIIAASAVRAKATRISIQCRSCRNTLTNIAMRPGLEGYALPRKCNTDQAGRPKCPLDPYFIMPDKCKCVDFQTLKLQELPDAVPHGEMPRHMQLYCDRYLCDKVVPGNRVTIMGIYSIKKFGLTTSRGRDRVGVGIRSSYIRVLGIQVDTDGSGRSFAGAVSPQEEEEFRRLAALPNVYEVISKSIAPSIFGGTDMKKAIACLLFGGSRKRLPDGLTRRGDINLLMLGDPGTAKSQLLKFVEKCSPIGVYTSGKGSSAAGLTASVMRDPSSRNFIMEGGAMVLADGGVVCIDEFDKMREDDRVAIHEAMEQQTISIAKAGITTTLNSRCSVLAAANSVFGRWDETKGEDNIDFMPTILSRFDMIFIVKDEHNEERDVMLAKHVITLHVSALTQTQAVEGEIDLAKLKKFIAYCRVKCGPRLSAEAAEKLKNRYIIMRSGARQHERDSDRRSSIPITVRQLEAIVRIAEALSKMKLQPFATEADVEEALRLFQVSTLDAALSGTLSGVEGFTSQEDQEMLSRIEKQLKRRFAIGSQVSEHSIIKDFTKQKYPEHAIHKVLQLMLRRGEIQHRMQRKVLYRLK
T1 sequence (Q14566 whole entry, further chain): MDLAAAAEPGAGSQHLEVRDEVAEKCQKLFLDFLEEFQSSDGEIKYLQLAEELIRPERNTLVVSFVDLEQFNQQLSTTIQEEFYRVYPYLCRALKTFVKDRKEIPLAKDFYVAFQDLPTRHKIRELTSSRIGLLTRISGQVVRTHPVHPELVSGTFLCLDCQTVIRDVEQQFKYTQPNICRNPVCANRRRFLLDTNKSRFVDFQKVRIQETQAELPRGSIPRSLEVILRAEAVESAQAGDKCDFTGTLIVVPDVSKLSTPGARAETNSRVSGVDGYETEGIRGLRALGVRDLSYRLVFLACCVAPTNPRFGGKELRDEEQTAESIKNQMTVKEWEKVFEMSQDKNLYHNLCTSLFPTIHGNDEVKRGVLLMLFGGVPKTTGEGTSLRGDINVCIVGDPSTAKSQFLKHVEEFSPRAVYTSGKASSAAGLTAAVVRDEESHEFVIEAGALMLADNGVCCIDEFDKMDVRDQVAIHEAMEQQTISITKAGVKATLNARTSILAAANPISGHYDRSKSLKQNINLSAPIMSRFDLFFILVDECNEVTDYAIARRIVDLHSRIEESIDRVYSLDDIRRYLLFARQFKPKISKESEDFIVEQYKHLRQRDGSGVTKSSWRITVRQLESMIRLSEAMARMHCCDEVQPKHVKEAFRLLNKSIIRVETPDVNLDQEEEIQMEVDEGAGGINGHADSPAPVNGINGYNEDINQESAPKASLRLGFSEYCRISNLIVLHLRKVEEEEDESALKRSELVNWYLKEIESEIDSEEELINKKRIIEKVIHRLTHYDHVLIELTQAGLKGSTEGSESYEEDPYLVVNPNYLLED
T1 sequence (P33993 whole entry, further chain): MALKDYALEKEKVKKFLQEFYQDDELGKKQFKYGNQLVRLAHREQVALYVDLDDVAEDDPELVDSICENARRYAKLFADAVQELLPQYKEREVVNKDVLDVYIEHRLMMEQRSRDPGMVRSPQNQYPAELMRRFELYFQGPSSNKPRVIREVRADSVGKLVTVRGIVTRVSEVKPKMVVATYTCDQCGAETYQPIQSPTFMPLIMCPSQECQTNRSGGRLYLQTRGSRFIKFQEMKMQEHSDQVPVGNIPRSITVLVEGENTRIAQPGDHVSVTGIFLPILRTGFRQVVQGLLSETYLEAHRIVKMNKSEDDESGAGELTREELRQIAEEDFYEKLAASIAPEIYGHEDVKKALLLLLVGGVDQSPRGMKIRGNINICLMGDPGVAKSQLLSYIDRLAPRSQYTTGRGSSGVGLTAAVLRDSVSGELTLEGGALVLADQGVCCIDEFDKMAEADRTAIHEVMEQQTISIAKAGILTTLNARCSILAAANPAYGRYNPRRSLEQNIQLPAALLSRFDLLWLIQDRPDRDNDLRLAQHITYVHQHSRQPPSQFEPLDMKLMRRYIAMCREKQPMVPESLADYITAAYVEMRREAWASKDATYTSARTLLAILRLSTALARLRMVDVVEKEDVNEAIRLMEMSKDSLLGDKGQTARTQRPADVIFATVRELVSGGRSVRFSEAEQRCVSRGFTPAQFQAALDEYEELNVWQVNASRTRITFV

Q: How did the “inhibition of hCMG helicase activity, SAR set” value (“inhibition … SAR set” for short) [1] turn out when `CO[C@@H]1[C@@H](OC(=O)c2ccc(C)[nH]2)[C@@H](O)C(O)OC1(C)C` (mixture of isomers) [MBC-D1, (3R,4S,5R)-5,6-Dihydroxy-3-methoxy-2,2-dimethyltetrahydro-2H-pyran-4-y 5-methyl-1H-pyrrole-2-carboxylate] was run?
A: only a small level of inhibition

Q: Which “hCMG helicase inhibition by quinolones” value ([1]; 100 μM or 1000 μM) does the source give for `O=C(O)c1cn(C2CC2)c2cc(N3CCNCC3)c(F)cc2c1=O` [ciprofloxacin] here?
A: do not inhibit the purified hCMG helicase

Q: For `Nc1ncnc2c1ncn2[C@@H]1O[C@H](COP(=O)(O)OP(=O)(O)OP(O)(O)=S)[C@@H](O)[C@H]1O` [ATP-γ-S], which “suppression of fork-unwinding activity” value ([1]; 500 μM ATP, increasing ATP-gamma-S) is on record?
A: dose-dependent suppression of fork-unwinding activity

Q: For `CC(C)=CCc1cc(C(=O)Nc2c(O)c3ccc(O)c(C)c3oc2=O)ccc1O` [MBC-D2, N-(4,7-Dihydroxy-8-methyl2-oxo-2H-chromen-3-yl)-4-hydroxy-3-(3-methylbut-2-en-1-yl)benzamide], which “inhibition … SAR set” value [1] is on record?
A: somewhat effective at inhibiting the hCMG

Q: `CO[C@@H]1[C@@H](OC(=O)c2ccc(C)[nH]2)[C@@H](O)[C@H](Oc2ccc3c(O)c(NC(=O)c4ccc(O)c(CC=C(C)C)c4)c(=O)oc3c2C)OC1(C)C` [MBC, (3R,4S,5R,6R)-5-Hydroxy-6-((4-hydroxy-3-(4-hydroxy-3-(3-methylbut-2-en-1-yl)benzamido)-8-methyl-2-oxo-2H-chromen-7-yl)oxy)-3-methoxy-2,2-dimethyltetrahydro-2H-pyran-4-yl] was tested. Which IC50 ([1]; fork-unwinding, read-out: IC50 for hCMG helicase inhibition) did it give?
A: ~59 µM

Q: With `CO[C@@H]1[C@@H](O)[C@@H](O)[C@H](Oc2ccc3c(O)c(NC(=O)c4ccc(O)c(CC=C(C)C)c4)c(=O)oc3c2C)OC1(C)C` [MBC-D3, N-(7-(((2R,3R,4S,5R)-3,4-Dihydroxy-5-methoxy-6,6-dimethyltetrahydro-2H-pyran-2-yl)oxy)-4-hydroxy-8-methyl-2-oxo-2H-chromen-3-yl)-4-hydroxy-3-(3-methylbut-2-en-1-yl)benzamide] as the compound, how does the “inhibition … SAR set” value [1] read?
A: this inhibition of the hCMG is diminished when the noviose sugar is added

Q: Which “ADP conversion rate by the hCMG” value [2] does the source give for `Nc1ncnc2c1ncn2[C@@H]1O[C@H](COP(=O)(O)OP(=O)(O)O)[C@@H](O)[C@H]1O` [ADP] here?
A: ~ 1.5%

Q: What about the “production of ADP” value ([2]; 10 μL reaction, 1 hr) of the same compound?
A: 7 to 8 µM

Q: For “(3R,4S,5R,6R)-5-Hydroxy-6-((4-hydroxy-3-(4-hydroxy-3-(3-methylbut-2-en-1-yl)benzamido)-8-methyl-2-oxo-2H-chromen-7-yl)oxy)-3-methoxy-2,2-dimethyltetrahydro-2H-pyran-4-yl [MBC]”, which “inhibition … SAR set” value [1] is on record?
A: potently inhibit the hCMG

Q: With `COc1cc([C@@H]2c3cc4c(cc3[C@@H](O[C@@H]3O[C@@H]5CO[C@@H](C)O[C@H]5[C@H](O)[C@H]3O)[C@H]3COC(=O)[C@H]23)OCO4)cc(OC)c1O` [etoposide] as the compound, how does the “hCMG helicase inhibition by etoposide” value ([1]; fork-unwinding) read?
A: does not inhibit hCMG activity

Q: And the “hCMG helicase inhibition by etoposide” value ([1]; fork-unwinding, listed as Etoposide)?
A: no effect on hCMG helicase activity in vitro

Q: And the “DNA replication (BrdU), early S-phase treatment” value (HaCaT cells)?
A: effectively suppressed DNA replication

Q: What about the “DNA polymerases-a and -d on chromatin” value [3] of the same compound?
A: small change

Q: What about the “replisome components or RPA on chromatin” value [3] of the same compound?
A: does not significantly diminish replisome components or RPA on chromatin
